Results as given in ChEMBL document CHEMBL1151816, “Cytotoxic spirostane-type saponins from the roots of Chlorophytum borivilianum” (J Nat Prod, 2009).
Activity calls are given as the source filed them. No cut-off for these calls is given here.

Tests used:
Format in all cases: functional, cell-based
[1] = system: HCT-116; experiment: Cytotoxicity against human HCT116 cells at 0.38 uM after 4 days by MTT assay
[2] = system: HT-29; experiment: Cytotoxicity against human HT-29 cells at 2.6 uM after 4 days by MTT assay
[3] = system: HCT-116; experiment: Cytotoxicity against human HCT116 cells after 4 days by MTT assay; conditions: HCT-116, 96 h

SMILES	Activity [1]	Activity [2]	IC50 [3]
C=C1CC[C@@]2(OC1)O[C@H]1C[C@H]3[C@@H]4CC[C@H]5C[C@@H](O[C@@H]6O[C@H](CO)[C@H](O[C@@H]7O[C@H](CO)[C@@H](O)[C@H](O[C@@H]8OC[C@@H](O)[C@H](O)[C@H]8O)[C@H]7O[C@@H]7O[C@H](CO)[C@@H](O)[C@H](O)[C@H]7O)[C@H](O)[C@H]6O)[C@H](O)C[C@]5(C)[C@H]4CC[C@]3(C)[C@H]1[C@@H]2C	Active	Active	–
CC(=O)O[C@H]1C(=O)[C@@]2(C)[C@H]([C@H](OC(=O)c3ccccc3)[C@]3(O)C[C@H](OC(=O)[C@H](O)[C@@H](NC(=O)c4ccccc4)c4ccccc4)C(C)=C1C3(C)C)[C@]1(OC(C)=O)CO[C@@H]1C[C@@H]2O [PACLITAXEL]	–	–	1.1 nM
